Assay results reported in paper PMC6186272 (Stem Cells Translational Medicine, 2018).
Values belong to the compound of their own block, whether it stands above or below them.

Assays:
Wnt3a = experiment: Quantitative RT-PCR of Wnt3a expression during cardiac differentiation; assay type: cell-based, human; conditions: CHIR99021 6 μM day 0, 1.5 μM day 1; SB203580 and TA-01 5 μM
IMR‐90 cells = experiment: Monolayer cardiac differentiation, IMR-90 cells; assay type: cell-based, human; conditions: 5 μM (IWR-1: 2.5 μM), days 3–5, day 13
H1 cells = experiment: Monolayer cardiac differentiation, H1 cells; assay type: cell-based, human; conditions: days 3–5, day 13; for Cardiac differentiation in H1 cells: 5 μM; for NKX2‐5/cTnT‐positive cells: H1, 5 μM (IWR-1: 2.5 μM)
[1] = test system: HES‐3 (NKX2‐5eGFP/w reporter cell line); assay type: cell-based, human; conditions: for Induction of cardiomyogenesis in HES-3 cells: 5 μM, days 3–5, day 13; for Percentage of NKX2‐5/GFP positive cells: HES-3, 5 μM (IWR-1: 2.5 μM), days 3–5, flow cytometry day 13, DMSO 14%
hPSCs = conditions: for Cell proliferation during neural differentiation: 5 and 10 μM, days 1 to 9, cell count day 9
[2] = test system: HES‐3 (NKX2–5eGFP/w reporter cell line); conditions: 5 μM, days 3–5, image analysis on day 13
[3] = test system: NKX2‐5/GFP‐positive cells; conditions: added from days 4 to 8; cited from earlier work
TGFBR2 [4] = target: T1, TGFBR2 (Homo sapiens, UniProt P37173); conditions: 1 μM compound
BMPR1B kinase = conditions: percentage of control; cited from earlier work
TGFBR2 [5] = target: T1, TGFBR2; conditions: cited from earlier work
[6] = Permeability test: mass retention to the artificial membrane; assay type: in vitro ADME
ALK5 = target: T2, ALK5 (Homo sapiens, UniProt P36897); experiment: LanthaScreen Eu Kinase binding assay, ALK5; conditions: for IC50: read-out: ALK5 IC50 ± SEM, mean ± SEM, triplicate
T2 sequence (P36897 34-503): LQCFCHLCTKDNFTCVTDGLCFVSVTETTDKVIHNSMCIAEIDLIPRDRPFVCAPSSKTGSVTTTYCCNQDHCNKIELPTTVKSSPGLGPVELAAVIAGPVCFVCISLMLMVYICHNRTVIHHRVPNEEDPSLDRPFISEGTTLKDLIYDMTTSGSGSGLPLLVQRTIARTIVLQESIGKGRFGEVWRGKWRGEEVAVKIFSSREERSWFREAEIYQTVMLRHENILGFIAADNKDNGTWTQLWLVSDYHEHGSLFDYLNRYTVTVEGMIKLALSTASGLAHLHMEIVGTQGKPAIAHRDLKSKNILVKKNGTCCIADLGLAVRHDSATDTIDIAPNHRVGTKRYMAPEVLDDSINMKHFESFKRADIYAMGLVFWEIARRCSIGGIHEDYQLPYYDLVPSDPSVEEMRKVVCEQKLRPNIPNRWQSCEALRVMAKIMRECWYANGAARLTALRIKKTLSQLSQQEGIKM

[7] = test system: SMAD/GFP reporter cell line (TGFβ pathway); conditions: 5 μM, then TGFβ3 2, 100, 1000 ng/ml
[8] = test system: SMAD2 phosphorylation (TGFβ pathway); conditions: 5 μM, day 3, 30 minutes to 8 hours

T1 sequence (P37173 23-567): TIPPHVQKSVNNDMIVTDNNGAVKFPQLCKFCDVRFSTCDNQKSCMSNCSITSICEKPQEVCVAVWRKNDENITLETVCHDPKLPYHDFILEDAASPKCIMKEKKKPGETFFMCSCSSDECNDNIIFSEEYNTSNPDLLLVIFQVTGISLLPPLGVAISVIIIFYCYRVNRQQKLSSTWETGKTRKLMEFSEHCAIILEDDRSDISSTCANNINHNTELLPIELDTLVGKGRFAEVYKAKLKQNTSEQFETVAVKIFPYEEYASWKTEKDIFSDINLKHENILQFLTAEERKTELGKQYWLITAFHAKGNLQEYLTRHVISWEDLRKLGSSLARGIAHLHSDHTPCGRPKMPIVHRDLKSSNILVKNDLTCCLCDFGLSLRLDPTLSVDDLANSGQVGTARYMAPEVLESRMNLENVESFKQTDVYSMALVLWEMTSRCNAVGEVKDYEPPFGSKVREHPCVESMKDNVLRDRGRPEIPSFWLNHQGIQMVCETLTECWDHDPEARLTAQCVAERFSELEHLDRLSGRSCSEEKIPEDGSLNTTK

SMILES: Cc1c[nH]c(-c2cnc(NCCNc3ccc(C#N)cn3)nc2-c2ccc(Cl)cc2Cl)n1 [CHIR99021]
- Suppression of Wnt3a expression on day 3 (Wnt3a): expression of Wnt3a was suppressed

SMILES: Cc1cccc(-c2[nH]ncc2-c2ccc(F)c(-c3cnn(CCO)c3)c2)n1 [Compound R268712]
- Cardiac differentiation in IMR-90 cells (IMR‐90 cells): promoted cardiac differentiation
- Cardiac differentiation in H1 cells (H1 cells): promoted cardiac differentiation
- Induction of cardiomyogenesis in HES-3 cells [1]: failed to induce cardiomyogenesis

SMILES: CCOC(=O)C1=C(C)NC2=C(C(=O)CC(C)(C)C2)C1c1ccc(-c2ccccc2)cc1 (stereo not shown) [ITD‐1]
- Cell proliferation during neural differentiation (hPSCs): inhibit cell proliferation
- NKX2‐5/cTnT‐positive cells (H1 cells): ~ 40%
- Percentage of NKX2‐5/GFP positive cells [1]: 25%

SMILES: Cc1ccc2nc(NC(=O)CSc3nc4c(c(=O)n3-c3ccccc3)SCC4)sc2c1 [IWP-2, reference compound]
- NKX2-5/GFP expression of EBs compared with TA-01 [2]: higher GFP expression than the lead compound TA‐01

SMILES: O=C(Nc1cccc2cccnc12)c1ccc(N2C(=O)[C@@H]3[C@H](C2=O)[C@@H]2C=C[C@H]3C2)cc1 [IWR-1]
- Axin 1 and 2 expression (Wnt/β‐catenin pathway; 2.5 μM): upregulation
- Cardiac differentiation in IMR-90 cells (IMR‐90 cells): did not increase
- NKX2‐5/cTnT‐positive cells (H1 cells): approximately 80%

SMILES: Cc1cccc(-c2[nH]ncc2-c2ccc3ncccc3n2)n1 [RepSox]
- Cardiac differentiation in IMR-90 cells (IMR‐90 cells): promoted cardiac differentiation
- Cardiac differentiation in H1 cells (H1 cells): promoted cardiac differentiation
- Induction of cardiomyogenesis in HES-3 cells [1]: failed to induce cardiomyogenesis

SMILES: C[S+]([O-])c1ccc(-c2nc(-c3ccncc3)c(-c3ccc(F)cc3)[nH]2)cc1 (stereo not shown) [SB203580]
- Suppression of Wnt3a expression on day 3 (Wnt3a): not observed

SMILES: Fc1ccc(Cl)cc1-c1nc(Nc2ccncc2)c2nccnc2n1 [SD208]
- Cardiac differentiation in IMR-90 cells (IMR‐90 cells): promoted cardiac differentiation
- Cardiac differentiation in H1 cells (H1 cells): promoted cardiac differentiation
- Induction of cardiomyogenesis in HES-3 cells [1]: failed to induce cardiomyogenesis

- Percentage inhibition of TGFBR2 at 1 μM (TGFBR2 [4]): 91%
- Permeability compared with IWR-1 and CHIR99021 [6]: less permeable
SMILES: Fc1ccc(-c2nc(-c3c(F)cccc3F)[nH]c2-c2ccncc2)cc1 [TA-01]
- Increase in the percentage expression of NKX2‐5/GFP‐positive cells over DMSO [3]: threefold
- BMPR1B binding, POC at 10 μM (BMPR1B kinase): 6.2
- Suppression of Wnt3a expression on day 3 (Wnt3a): not observed
- TGFBR2 binding, percentage of control at 10 μM (TGFBR2 [5]): 1.6
- Percentage of NKX2‐5/GFP positive cells [1]: 30%–40%

SMILES: Fc1ccc(-c2nc(-c3ccccc3)[nH]c2-c2ccncc2)cc1 [TI-14, 4-(4(5)-(4-Fluorophenyl)-2-phenyl-1H-imidazol-5(4)-yl)pyridine]
- NKX2-5/GFP expression of EBs compared with TA-01 [2]: higher GFP expression than the lead compound TA‐01

- Percentage inhibition of TGFBR2 at 1 μM (TGFBR2 [4]): 80%
- Potency in the inhibition of ALK5 relative to TA‐01 (ALK5; ratio of IC50 values): approximately 10 times
- Permeability compared with IWR-1 and CHIR99021 [6]: less permeable
SMILES: Fc1ccc(-c2nc(-c3c(Cl)cccc3Cl)[nH]c2-c2ccncc2)cc1 [TI-15, 4-(2-(2,6-Dichlorophenyl)-4(5)-(4-fluorophenyl)-1H-imidazol-5(4)-yl)pyridine]
- NKX2-5/GFP expression of EBs compared with TA-01 [2]: higher GFP expression than the lead compound TA‐01
- Cell growth during neural differentiation at 2.5 μM (hPSCs; 2.5 μM, days 1 to 9): not at the concentration of 2.5 μM
- Cell proliferation during neural differentiation (hPSCs): inhibit cell proliferation
- β‐catenin phosphorylation on Ser552/675 and downstream TCF‐1/LEF‐1 expression (Wnt/β‐catenin pathway; 5 μM, day 3, 1, 4 and 8 hours after treatment): expression levels did not change
- Numbers of GFP‐positive cells (nuclear SMAD/GFP reporter) [7]: reduced
- Phosphorylation of SMAD2 protein at Ser 465/467 [8]: significantly reduced
- Cell proliferation during cardiac differentiation, dosing days 2–5 ([1]; days 2–5, data not shown): inhibition of cell proliferation
- Cell growth during cardiac differentiation, dosing days 3–5 ([1]; days 3–5): does not inhibit cell growth

SMILES: COc1ccccc1-c1nc(-c2ccc(F)cc2)c(-c2ccncc2)[nH]1 [TI-16, 4-(2-(2-Methoxyphenyl)-4(5)-(4-fluorophenyl)-1H-imidazol-5(4)-yl)pyridine]
- NKX2-5/GFP expression of EBs compared with TA-01 [2]: higher GFP expression than the lead compound TA‐01

- IC50 (ALK5): 747 nM
SMILES: COc1cccc(OC)c1-c1nc(-c2ccc(F)cc2)c(-c2ccncc2)[nH]1 [TI-18, 4-(2-(2,6-Dimethoxyphenyl)-4(5)-(4-fluorophenyl)-1H-imidazol-5(4)-yl)pyridine]

SMILES: COc1cccc(F)c1-c1nc(-c2ccc(F)cc2)c(-c2ccncc2)[nH]1 [TI-20, 4-(2-(2-Fluoro-6-methoxyphenyl)-4(5)-(4-fluorophenyl)-1H-imidazol-5(4)-yl)pyridine]
- NKX2-5/GFP expression of EBs compared with TA-01 [2]: higher GFP expression than the lead compound TA‐01

- IC50 (ALK5): 10.9 nM
SMILES: Fc1ccc(-c2nc(-c3c(F)cccc3Br)[nH]c2-c2ccncc2)cc1 [TI-21, 4-(2-(2-Bromo-6-fluorophenyl)-4(5)-(4-fluorophenyl)-1H-imidazol-5(4)-yl)pyridine]
- NKX2-5/GFP expression of EBs compared with TA-01 [2]: higher GFP expression than the lead compound TA‐01

- IC50 (ALK5): 13.1 nM
SMILES: O=[N+]([O-])c1cccc(Cl)c1-c1nc(-c2ccc(F)cc2)c(-c2ccncc2)[nH]1 [TI-24, 4-(2-(2-Chloro-6-nitrophenyl)-4(5)-(4-fluorophenyl)-1H-imidazol-5(4)-yl)pyridine]
- NKX2-5/GFP expression of EBs compared with TA-01 [2]: higher GFP expression than the lead compound TA‐01

SMILES: COc1cc(O)c(-c2nc(-c3ccc(F)cc3)c(-c3ccncc3)[nH]2)c(OC)c1 [TI-25, 2-(4(5)-(4-Fluorophenyl)-5(4)-(pyridin-4-yl)-1H-imidazol-2-yl)-3,5-dimethoxyphenol]
- NKX2-5/GFP expression of EBs compared with TA-01 [2]: higher GFP expression than the lead compound TA‐01

SMILES: O=[N+]([O-])c1ccccc1-c1nc(-c2ccc(F)cc2)c(-c2ccncc2)[nH]1 [TI-26, 4-(4(5)-(4-Fluorophenyl)-2-(2-nitrophenyl)-1H-imidazol-5(4)-yl)pyridine]
- NKX2-5/GFP expression of EBs compared with TA-01 [2]: higher GFP expression than the lead compound TA‐01

SMILES: Cc1cccc(C)c1-c1nc(-c2ccc(F)cc2)c(-c2ccncc2)[nH]1 [TI-27, 4-(2-(2,6-Dimethylphenyl)-4(5)-(4-fluorophenyl)-1H-imidazol-5(4)-yl)pyridine]
- NKX2-5/GFP expression of EBs compared with TA-01 [2]: higher GFP expression than the lead compound TA‐01

- IC50 (ALK5): 22.1 nM
SMILES: Fc1ccc(-c2nc(-c3c(F)cccc3I)[nH]c2-c2ccncc2)cc1 [TI-29, 4-(2-(2-Fluoro-6-iodophenyl)-4(5)-(4-fluorophenyl)-1H-imidazol-5(4)-yl)pyridine]

SMILES: Fc1ccc(-c2nc(-c3ccc4ccccc4c3Br)[nH]c2-c2ccncc2)cc1 [TI-33, 4-(2-(1-Bromonaphthalen-2-yl)-4(5)-(4-fluorophenyl)-1H-imidazol-5(4)-yl)pyridine]
- NKX2-5/GFP expression of EBs compared with TA-01 [2]: higher GFP expression than the lead compound TA‐01

- Percentage inhibition of TGFBR2 at 1 μM (TGFBR2 [4]): 81%
SMILES: Fc1ccc(-c2nc(C3CCCCC3)[nH]c2-c2ccncc2)cc1 [TI-34, 4-(2-Cyclohexyl-4(5)-(4-fluorophenyl)-1H-imidazol-5(4)-yl)pyridine]

SMILES: Fc1ccc(-c2c(-c3ccncc3)ncn2-c2ccccc2)cc1 [TI-38, 4-(5-(4-Fluorophenyl)-1-phenyl-1H-imidazol-4-yl)pyridine]
- Cell proliferation during neural differentiation (hPSCs): inhibit cell proliferation

- Permeability compared with IWR-1 and CHIR99021 [6]: less permeable
SMILES: Fc1ccc(-c2nc(-c3ccc4ccccc4c3F)[nH]c2-c2ccncc2)cc1 [TI-42, 4-(2-(1-Fluoronaphthalen-2-yl)-4(5)-(4-fluorophenyl)-1H-imidazol-5(4)-yl)pyridine]
